Key:
CYP2D6 = CYP2D6 (Homo sapiens, UniProt P10635); experiment: Cytochrome P450 inhibition assay, CYP2D6; format: biochemical
[1] = predicted BBB permeation class
[2] = Microsomal stability, mouse; format: in vitro ADME; settings: after 60 min, pooled mouse microsomes, NADPH, 37 °C
[3] = Microsomal stability, human; format: in vitro ADME; settings: after 60 min, pooled human microsomes, NADPH, 37 °C
CYP2C9 = CYP2C9 (Homo sapiens, UniProt P11712); experiment: Cytochrome P450 inhibition assay, CYP2C9; format: biochemical; settings: probe 7-methoxy-4-(trifluoromethyl)coumarin
Chain of CYP2C9 (P11712 whole entry): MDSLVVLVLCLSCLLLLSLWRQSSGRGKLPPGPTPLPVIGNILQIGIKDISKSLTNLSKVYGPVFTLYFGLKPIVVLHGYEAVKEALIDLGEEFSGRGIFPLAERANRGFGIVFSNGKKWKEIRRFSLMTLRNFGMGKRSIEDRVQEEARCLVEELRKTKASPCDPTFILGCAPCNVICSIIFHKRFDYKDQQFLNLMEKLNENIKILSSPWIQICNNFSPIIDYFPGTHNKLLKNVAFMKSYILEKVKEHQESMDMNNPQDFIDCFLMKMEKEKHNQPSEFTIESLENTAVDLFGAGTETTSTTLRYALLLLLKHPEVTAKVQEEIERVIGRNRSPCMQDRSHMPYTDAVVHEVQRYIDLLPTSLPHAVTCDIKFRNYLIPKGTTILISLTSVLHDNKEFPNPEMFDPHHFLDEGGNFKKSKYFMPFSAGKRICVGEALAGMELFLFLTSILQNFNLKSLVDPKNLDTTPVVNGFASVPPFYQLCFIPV

CYP3A4 = CYP3A4 (Homo sapiens, UniProt P08684); experiment: Cytochrome P450 inhibition assay, CYP3A4; format: biochemical; settings: probe dibenzylfluorescein (DBF)
Chain of CYP3A4 (P08684 whole entry): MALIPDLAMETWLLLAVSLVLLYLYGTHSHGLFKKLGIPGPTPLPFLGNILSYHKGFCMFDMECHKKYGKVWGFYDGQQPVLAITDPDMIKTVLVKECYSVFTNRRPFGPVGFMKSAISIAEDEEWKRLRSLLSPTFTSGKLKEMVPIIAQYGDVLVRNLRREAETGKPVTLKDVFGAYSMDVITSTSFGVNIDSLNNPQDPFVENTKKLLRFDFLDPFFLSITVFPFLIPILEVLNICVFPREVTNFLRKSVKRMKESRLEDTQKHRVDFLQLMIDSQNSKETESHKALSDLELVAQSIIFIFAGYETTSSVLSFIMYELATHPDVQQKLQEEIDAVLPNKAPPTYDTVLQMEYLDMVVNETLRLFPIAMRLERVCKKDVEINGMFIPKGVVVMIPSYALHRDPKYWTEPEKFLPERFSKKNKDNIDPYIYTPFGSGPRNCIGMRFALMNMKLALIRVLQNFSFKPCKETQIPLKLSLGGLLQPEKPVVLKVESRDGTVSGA

murine sEH = target: T1, murine sEH (Mus musculus, UniProt P34914); experiment: Enzymatic sEH activity assay; format: biochemical
T1 sequence (P34914 1-554): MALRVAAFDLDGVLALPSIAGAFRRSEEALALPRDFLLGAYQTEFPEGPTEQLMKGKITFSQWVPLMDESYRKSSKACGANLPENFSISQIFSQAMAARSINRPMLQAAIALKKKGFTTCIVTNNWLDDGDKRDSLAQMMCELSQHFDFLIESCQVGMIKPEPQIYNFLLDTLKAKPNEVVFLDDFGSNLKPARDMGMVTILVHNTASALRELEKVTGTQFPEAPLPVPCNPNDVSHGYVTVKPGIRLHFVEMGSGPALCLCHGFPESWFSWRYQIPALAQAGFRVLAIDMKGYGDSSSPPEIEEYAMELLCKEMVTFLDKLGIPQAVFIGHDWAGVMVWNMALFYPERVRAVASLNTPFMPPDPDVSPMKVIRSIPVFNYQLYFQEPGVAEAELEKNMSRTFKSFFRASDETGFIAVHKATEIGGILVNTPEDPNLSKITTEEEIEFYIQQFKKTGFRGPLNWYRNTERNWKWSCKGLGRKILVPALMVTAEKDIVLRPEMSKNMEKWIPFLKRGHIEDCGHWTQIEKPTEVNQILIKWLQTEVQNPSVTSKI

human sEH = target: T2, human sEH (Homo sapiens, UniProt P34913); experiment: Enzymatic sEH activity assay; format: biochemical
T2 sequence (P34913 1-555): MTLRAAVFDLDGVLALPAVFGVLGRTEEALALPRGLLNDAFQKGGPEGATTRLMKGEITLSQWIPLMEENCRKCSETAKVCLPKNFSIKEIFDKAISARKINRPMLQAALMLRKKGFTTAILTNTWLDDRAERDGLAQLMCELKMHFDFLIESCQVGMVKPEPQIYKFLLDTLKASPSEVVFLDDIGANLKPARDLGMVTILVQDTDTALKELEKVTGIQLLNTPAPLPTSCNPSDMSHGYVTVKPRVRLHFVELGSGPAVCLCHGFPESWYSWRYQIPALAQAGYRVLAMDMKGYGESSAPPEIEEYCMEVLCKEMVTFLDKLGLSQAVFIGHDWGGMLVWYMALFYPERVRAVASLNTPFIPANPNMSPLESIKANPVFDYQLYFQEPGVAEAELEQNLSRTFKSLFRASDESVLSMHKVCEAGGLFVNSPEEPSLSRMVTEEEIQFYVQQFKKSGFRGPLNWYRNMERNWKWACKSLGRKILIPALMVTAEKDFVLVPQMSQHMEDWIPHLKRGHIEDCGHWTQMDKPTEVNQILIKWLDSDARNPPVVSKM

[4] = system: paclitaxel-induced tactile allodynia; experiment: Paclitaxel-induced neuropathic pain, mechanical allodynia; format: in vivo, female WT-CD1 mice
hERG = hERG (Homo sapiens, UniProt Q12809); experiment: hERG inhibition assay; format: cell-based; settings: CHO cells transfected with hERG (CHO hERG-Duo cell line)
Chain of hERG (Q12809 whole entry): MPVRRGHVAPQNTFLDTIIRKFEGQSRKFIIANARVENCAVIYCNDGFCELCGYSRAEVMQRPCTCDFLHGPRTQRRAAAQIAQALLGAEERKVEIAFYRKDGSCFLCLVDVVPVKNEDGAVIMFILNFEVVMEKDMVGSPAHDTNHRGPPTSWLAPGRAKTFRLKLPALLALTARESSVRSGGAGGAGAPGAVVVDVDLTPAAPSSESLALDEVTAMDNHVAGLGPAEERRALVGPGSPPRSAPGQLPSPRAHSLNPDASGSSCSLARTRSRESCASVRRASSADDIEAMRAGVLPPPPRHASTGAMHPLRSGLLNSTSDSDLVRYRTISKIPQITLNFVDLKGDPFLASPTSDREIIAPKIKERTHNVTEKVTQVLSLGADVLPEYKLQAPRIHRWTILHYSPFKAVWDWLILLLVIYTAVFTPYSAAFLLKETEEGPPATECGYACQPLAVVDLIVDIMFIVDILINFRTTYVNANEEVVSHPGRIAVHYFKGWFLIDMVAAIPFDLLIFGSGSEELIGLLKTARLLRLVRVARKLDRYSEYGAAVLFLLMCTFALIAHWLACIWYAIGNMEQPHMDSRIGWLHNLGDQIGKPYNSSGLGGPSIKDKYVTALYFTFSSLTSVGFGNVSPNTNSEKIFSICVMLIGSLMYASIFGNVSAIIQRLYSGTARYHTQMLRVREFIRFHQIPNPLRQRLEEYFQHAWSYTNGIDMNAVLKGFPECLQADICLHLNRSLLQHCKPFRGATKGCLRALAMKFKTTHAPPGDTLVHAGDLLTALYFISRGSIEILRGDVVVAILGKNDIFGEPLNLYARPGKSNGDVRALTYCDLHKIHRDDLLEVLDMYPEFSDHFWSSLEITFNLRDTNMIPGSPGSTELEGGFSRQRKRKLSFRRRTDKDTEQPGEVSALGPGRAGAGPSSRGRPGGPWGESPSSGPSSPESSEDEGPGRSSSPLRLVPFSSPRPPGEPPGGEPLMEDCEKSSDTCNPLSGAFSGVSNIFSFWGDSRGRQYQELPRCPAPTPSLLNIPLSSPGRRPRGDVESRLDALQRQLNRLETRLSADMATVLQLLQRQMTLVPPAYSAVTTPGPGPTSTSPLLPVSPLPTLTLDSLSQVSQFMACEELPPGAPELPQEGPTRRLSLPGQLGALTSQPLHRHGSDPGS

SH-SY5Y cells = experiment: Cytotoxicity in SH-SY5Y cells; format: cell-based, human; settings: 100 µM, MTT and PI assays
[5] = Pharmacokinetic study in plasma and brain, subcutaneous; format: in vivo, male CD1 mice; settings: for AUC: male CD1 mice, 5 mg/kg single dose s.c.
[6] = target: T3, human soluble epoxide hydrolase (hsEH) (Homo sapiens, UniProt P34913); experiment: sEH immunoblotting in HEK293 cells; format: cell-based; settings: HEK293, 4 h treatment, 10-fold titration 10 nM to 10 µM
T3 sequence (P34913 1-555): T2 sequence (P34913 1-555)

[7] = male, CD1, mouse, plasma, sc, 5 mg/kg

Chain of CYP2D6 (P10635 whole entry): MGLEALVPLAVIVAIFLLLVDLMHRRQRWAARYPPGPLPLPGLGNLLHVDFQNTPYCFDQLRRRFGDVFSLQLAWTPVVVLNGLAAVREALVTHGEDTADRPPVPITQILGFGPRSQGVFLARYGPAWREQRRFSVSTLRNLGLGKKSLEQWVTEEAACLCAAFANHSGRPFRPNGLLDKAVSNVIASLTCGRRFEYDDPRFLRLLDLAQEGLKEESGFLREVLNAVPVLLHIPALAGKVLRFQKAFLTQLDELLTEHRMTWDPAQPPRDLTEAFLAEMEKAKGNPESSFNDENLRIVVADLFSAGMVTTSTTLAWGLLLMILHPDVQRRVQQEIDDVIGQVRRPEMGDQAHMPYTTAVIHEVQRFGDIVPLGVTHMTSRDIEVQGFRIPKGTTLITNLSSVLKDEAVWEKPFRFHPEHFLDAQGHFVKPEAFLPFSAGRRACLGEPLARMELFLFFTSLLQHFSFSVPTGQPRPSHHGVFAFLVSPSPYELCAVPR

SMILES	inhibition at 10 µM (CYP2D6)	Microsomal stability Mouse, percentage of remaining compound [2]	Microsomal stability Human, percentage of remaining compound [3]	inhibition at 10 µM (CYP2C9)	inhibition at 10 µM (CYP3A4)	IC50 (murine sEH)	IC50 (human sEH)	other results
CC(=O)N1CCC(NC(=O)NC23CC4CC(C)(CC(C2)c2c(F)cccc24)C3)CC1 (stereo not drawn) [Compound 13, 1-(1-Acetylpiperidin-4-yl)-3–(1-fluoro-9-methyl-5,6,8,9,10,11-hexahydro-7H-5,9:7,11-dimethanobenzo[9]annulen-7-yl)urea]	1 ± 2%	1%	16%	6 ± 3%	9 ± 3%	0.8 nM		PAMPA-BBB [1]: CNS +
COc1cc2c(cc1OC)C1CC3(C)CC2CC(NC(=O)NC2CCN(C(C)=O)CC2)(C1)C3 [Compound 19, 1-(1-Acetylpiperidin-4-yl)-3–(2,3-dimethoxy-9-methyl-5,6,8,9,10,11-hexahydro-7H-5,9:7,11-dimethanobenzo[9]annulen-7-yl)urea]	2 ± 2%	70%	100%	8 ± 1%	15 ± 4%	2.2 nM	1.3 nM	
NCC1(CC(=O)O)CCCCC1 [gabapentin, reference compound]								Dose achieving full / maximum antiallodynic effect ([4]; s.c., paclitaxel-treated mice): 20 mg/kg
CC(=O)c1ccc2c(c1)C1CC3(C)CC2CC(NC(=O)NC2CCN(C(C)=O)CC2)(C1)C3 (stereo not drawn) [Compound 16, 1-(2-Acetyl-9-methyl-5,6,8,9,10,11-hexahydro-7H-5,9:7,11-dimethanobenzo[9]annulen-7-yl)-3–(1-acetylpiperidin-4-yl)urea]	7 ± 2%	70%	92%	9 ± 3%	3 ± 2%	6.7 nM	4.1 nM	
COc1cc2c(cc1OC)C1CC3(C)CC2CC(NC(=O)NC2CCN(C(=O)C4CCOCC4)CC2)(C1)C3 [Compound 20, 1-(2,3-Dimethoxy-9-methyl-5,6,8,9,10,11-hexahydro-7H-5,9:7,11-dimethanobenzo[9]annulen-7-yl)-3–(1-(tetrahydro-2H-pyran-4-carbonyl)piperidin-4-yl)urea]	36 ± 5%	96%	80%	22 ± 2%	43 ± 1%	1.9 nM	0.4 nM	inhibition at 30 min, 10 µM (hERG): 11 ± 2%
CC(=O)N1CCC(NC(=O)NC23CC4CC(C)(CC(C2)c2cc([N+](=O)[O-])ccc24)C3)CC1 (stereo not drawn) [Compound 17, 1-(1-Acetylpiperidin-4-yl)-3–(9-methyl-2-nitro-5,6,8,9,10,11-hexahydro-7H-5,9:7,11-dimethanobenzo[9]annulen-7-yl)urea]	8 ± 3%	27%	100%	20 ± 4%	10 ± 1%	4.5 nM	4.5 nM	
CC(=O)N1CCC(NC(=O)NC23CC4CC(C)(CC(C2)c2cc(N)ccc24)C3)CC1 (stereo not drawn) [Compound 18, 1-(1-Acetylpiperidin-4-yl)-3–(2-amino-9-methyl-5,6,8,9,10,11-hexahydro-7H-5,9:7,11-dimethanobenzo[9]annulen-7-yl)urea]						17.1 nM	25 nM	
COc1cc2c(cc1OC)C1CC3(F)CC2CC(NC(=O)NC2CCN(C(=O)C4CCOCC4)CC2)(C1)C3 [Compound 21, 1-(9-Fluoro-2,3-dimethoxy-5,6,8,9,10,11-hexahydro-7H-5,9:7,11-dimethanobenzo[9]annulen-7-yl)-3–(1-(tetrahydro-2H-pyran-4-carbonyl)piperidin-4-yl)urea]	15 ± 4%	86%	100%	8 ± 1%	1 ± 1%	2.9 nM		PAMPA-BBB [1]: CNS −; inhibition at 30 min, 10 µM (hERG): 9 ± 1%; Cytotoxicity at the highest concentration tested (SH-SY5Y cells): not cytotoxic; Compound level in brain samples ([5]; 5 mg/kg s.c., multiple time points 0.08–18 h): undetectable in all brain samples; Cmax [5, 7]: 1600 ng/mL; Tmax [5, 7]: 2 h; AUC ([5]; male, CD1, mouse, plasma, sc, 5 mg/kg, AUC^inf): 5600 ng·h/mL; AUC ([5]; male, CD1, mouse, plasma, sc, 5 mg/kg, AUC^last): 5500 ng·h/mL; hsEH protein levels (degradation) [6]: No significant degradation was observed; Prevention of development of paclitaxel-induced neuropathic pain ([4]; 5 mg/kg s.c. 30 min before each paclitaxel dose, tested at 10, 14, 21 days): showed no signs of sensory hypersensitivity at any time point tested; Dose achieving full / maximum antiallodynic effect ([4]; s.c., paclitaxel-treated mice): 5 mg/kg; Time of peak / maximum antiallodynic effect after administration ([4]; s.c., paclitaxel-treated mice): 90 min
COc1ccc2c(c1)C1CC3(C)CC2CC(NC(=O)NC2CCN(C(C)=O)CC2)(C1)C3 (stereo not drawn) [Compound 15, 1-(1-Acetylpiperidin-4-yl)-3–(2-methoxy-9-methyl-5,6,8,9,10,11-hexahydro-7H-5,9:7,11-dimethanobenzo[9]annulen-7-yl)urea]	8 ± 2%	32%	33%	12 ± 3%	12 ± 4%	1.7 nM		
C#CCOc1ccccc1CCCCCC(=O)NS(C)(=O)=O [MS-PPOH, N-methanesulfonyl-6–(2-proparyloxyphenyl)hexanamide, reference compound]								Effect on paclitaxel-induced tactile allodynia (alone) ([4]; 20 mg/kg s.c., day 10 after paclitaxel): did not alter paclitaxel-induced tactile allodynia; Effect of MS-PPOH on the antiallodynic effect of 21 ([4]; MS-PPOH 20 mg/kg s.c. 5 min before 21 5 mg/kg s.c., measured at 90 min): fully abolished the effect of compound 21
CC(=O)N1CCC(NC(=O)NC23CC4CC(C)(CC(C2)c2cc(F)ccc24)C3)CC1 (stereo not drawn) [Compound 14, 1-(1-Acetylpiperidin-4-yl)-3–(2-fluoro-9-methyl-5,6,8,9,10,11-hexahydro-7H-5,9:7,11-dimethanobenzo[9]annulen-7-yl)urea]	5 ± 2%	4%	22%	12 ± 2%	13 ± 3%	0.6 nM		PAMPA-BBB [1]: CNS +

Source: publication PMC12551014 (Journal of Enzyme Inhibition and Medicinal Chemistry, 2025)
